Experimental data: patent US10080366B2, “Agent for increasing sugar content in fruit” (RIKEN, priority 2012, dated 2018)
Where “and” joins values, the source holds several entries; their conditions need not be identical. Equal values may be shown once.

What was measured:
Pinot noir = experiment: Acceptability of fruit for wine (Example 11); type: in vivo, grape; details: Example 1 sample
From the text: As in the case where agriculture workers check whether or not a berry can be used for wine, the criteria of the acceptability were based the appearance (appearance associated with mold, rot, or the like, whether or not the fruit juice or fruit pulp was lost, and the like), taste (whether or not the berry was normal, when eaten, and the like), and odor (whether or not a foreign odor or the like was present). A berry having no problem in terms of any of the appearance, taste, and odor was determined to be acceptable, and a berry having any problem was determined to be not acceptable.

[1] = tested on: Grape (fruit: Cabernet Sauvignon); details: 10 g/L, three times at intervals of one week
From the text: (§1) To each of the plants shown in Table 16 below, an aqueous potassium hydrogen carbonate solution (5 g/L for lettuce and 10 g/L for the other plants) was applied three times at intervals of one week from one month before the harvest. The plants were harvested three weeks after the start of the application. Untreated plants not treated with the aqueous potassium hydrogen carbonate solution were harvested at the same time. After the harvest, the total amount of amino acids in each sample was determined, and the ratio of the total amount of amino acids in the plant treated with potassium hydrogen carbonate to the total amount of amino acids in the untreated plant was determined.

[2] = tested on: Rice plant (grains: Nipponbare); details: 10 g/L, three times at intervals of one week
From the text: as §1

[3] = tested on: Wheat (grains: Norin No. 61); details: 10 g/L, three times at intervals of one week
From the text: as §1

[4] = tested on: Lettuce (leaves: Great Lakes); details: 5 g/L, three times at intervals of one week
From the text: as §1

Tomato (fruit: Regina) = details: 10 g/L, three times at intervals of one week
From the text: as §1

fruits of apple = tested on: fruits of apple
Experimental: (§2) An agent for increasing a sugar content in a fruit (containing Sorbon T-20 as a spreader/sticker at a final concentration of 200 μL/L) diluted with water to have a potassium hydrogen carbonate concentration of 10 g/L was prepared. The masses of fruits of apple and cherry tomato purchased on the market were measured. Then, the prepared agent for increasing a sugar content in a fruit was applied by spraying to the fruits. The fruits were allowed to stand still in an air-conditioned greenhouse, and the masses of the apples and cherry tomatoes were measured on the date of application (date of application: Nov. 30, 2011; date of test: Dec. 5, 2011). In addition, as a control, the masses of untreated apples and cherry tomatoes were measured in the same manner.
(§3) The estimated transpiration ratio (%) was calculated by “the estimated amount (g) of transpiration/the mass (g) before application×100.”
(§4) The transpiration ratio was calculated by “the estimated transpiration ratio of the target sample (treated by application of potassium hydrogen carbonate or untreated)/the estimated transpiration ratio of the untreated sample.”

fruits of cherry tomato = tested on: fruits of cherry tomato
Experimental: as §2, §3, §4

O=C([O-])O.[K+] [Potassium hydrogen carbonate, potassium hydrogen carbonate] was tested, and the “Acceptable ratio (%) of fruit” value (Pinot noir; 5 g/L) was 75%, the “Acceptable ratio (%) of fruit” value (Pinot noir; 10 g/L) was 80% and the “Amino acid concentration ratio (treated/untreated)” value [1] was 2.2. For the same compound, the “Amino acid concentration ratio (treated/untreated)” value [2] was 1.2, the “Amino acid concentration ratio (treated/untreated)” value [3] was 1.2 and the “Amino acid concentration ratio (treated/untreated)” value [4] was 1.5. For the same compound, the “Amino acid concentration ratio (treated/untreated)” value (Tomato (fruit: Regina)) was 1.8, the “Transpiration ratio (treated/untreated)” value (fruits of apple; 10 g/L) was 1.65 and the “Mass (g) on date of test” value (fruits of apple; 10 g/L, Dec. 5) was 263.69 g and 274.65 g. For the same compound, the “Estimated amount (g) of transpiration” value (fruits of apple; 10 g/L, Nov. 30 to Dec. 5) was 9.15 g and 11.66 g, the “Estimated transpiration ratio (%)” value (fruits of apple; 10 g/L, Nov. 30 to Dec. 5) was 3.35% and 3.72% and the “Estimated transpiration ratio (average) (%)” value (fruits of apple; 10 g/L, average of two apples) was 3.54%. For the same compound, the “Mass (g) before application” value (fruits of apple; Nov. 30) was 272.84 g and 286.31 g, the “Transpiration ratio (treated/untreated)” value (fruits of cherry tomato; 10 g/L) was 1.93 and the “Mass (g) on date of test” value (fruits of cherry tomato; 10 g/L, Dec. 5) was 193.30 g. For the same compound, the “Estimated amount (g) of transpiration” value (fruits of cherry tomato; 10 g/L, Nov. 30 to Dec. 5) was 21.75 g, the “Estimated transpiration ratio (%)” value (fruits of cherry tomato; 10 g/L, Nov. 30 to Dec. 5) was 10.12% and the “Mass (g) before application” value (fruits of cherry tomato; Nov. 30) was 215.05 g.
